The source made the active and inactive calls. No cut-off for these calls is given here.
Assays:
[1] = Cytotoxicity against dog MDCK cells incubated for 48 hrs by MTT assay; assay type: cell-based, Canis lupus familiaris
Influenza A virus [2] = assay: Antiviral activity against Influenza A virus (A/Puerto Rico/8/1934(H1N1)) infected in MDCK cells incubated for 48 hrs by MTT assay; assay type: functional, organism-based
Influenza A virus [3] = assay: Antiviral activity against Influenza A virus (A/Puerto Rico/8/1934(H1N1)) infected in MDCK cells pre-treated with virus for 30 mins followed by cell infection for 1 hr by MTT assay; assay type: functional, organism-based
MDCK = assay: Inhibition of V-ATPase in dog MDCK cells assessed as decrease in fluorescence intensity at 5 uM incubated for 20 mins by acridine orange staining-based fluorescence quenching method (reference value: 100%); assay type: cell-based; settings: Canis lupus familiaris
Influenza A virus [4] = assay: Antiviral activity against Influenza A virus (A/Puerto Rico/8/34(H1N1)) infected in MDCK cells assessed as reduction in M1 mRNA level at 1 ng/ml pre-treated with virus for 30 mins followed by cell infection for 1 hr and measured after 24 hrs post infection by SYBR green dye-based qRT-PCR analysis; assay type: functional, organism-based; settings: A/Puerto Rico/8/1934(H1N1), time 1470.0 min
Influenza A virus [5] = assay: Antiviral activity against Influenza A virus (A/Puerto Rico/8/34(H1N1)) infected in MDCK cells assessed as reduction in HA mRNA level at 1 ng/ml pre-treated with virus for 30 mins followed by cell infection for 1 hr and measured after 24 hrs post infection by SYBR green dye-based qRT-PCR analysis; assay type: functional, organism-based; settings: A/Puerto Rico/8/1934(H1N1), time 1470.0 min
Influenza A virus [6] = assay: Antiviral activity against Influenza A virus (A/Puerto Rico/8/34(H1N1)) infected in MDCK cells assessed as reduction in NP expression level at 0.5 to 1 ng/ml pre-treated with virus for 30 mins followed by cell infection for 1 hr and measured after 24 hrs post infection by indirect immunofluorescence assay; assay type: functional, organism-based; settings: A/Puerto Rico/8/1934(H1N1), dose 0.5-1 ng/ml, time 1470.0 min
SARS-CoV-2 [7] = assay: Antiviral activity against SARS-CoV-2 nCoV-2019 BetaCoV/Wuhan/WIV04/2019 infected in Vero E6 cells assessed as reduction in NP expression at 0.005 to 0.5 ug/ml preincubated with cells for 1 hr followed by viral addition for 1 hr and measured at 24 hrs post infection by indirect immunofluorescence assay; assay type: functional, organism-based; settings: Severe acute respiratory syndrome coronavirus 2, dose 0.005-0.5 µg/ml, time 26.0 hrs
SARS-CoV-2 [8] = assay: Antiviral activity against SARS-CoV-2 nCoV-2019 BetaCoV/Wuhan/WIV04/2019 infected in Vero E6 cells assessed as S gene expression preincubated with cells for 1 hr followed by viral addition for 1 hr and measured at 24 hrs post infection by qRT-PCR method; assay type: functional, organism-based; settings: Severe acute respiratory syndrome coronavirus 2, nCoV-2019 BetaCoV/Wuhan/WIV04/2019, Vero C1008
SARS-CoV-2 [9] = assay: Antiviral activity against SARS-CoV-2 nCoV-2019 BetaCoV/Wuhan/WIV04/2019 infected in Vero E6 cells assessed as S gene expression preincubated with virus for 30 mins followed by cell infection for 1 hr and measured at 24 hrs post infection by qRT-PCR method; assay type: functional, organism-based; settings: Severe acute respiratory syndrome coronavirus 2, nCoV-2019 BetaCoV/Wuhan/WIV04/2019, Vero C1008

Structure (SMILES) | CC50 at 48 h [1] [nM] | IC50 (Influenza A virus [2]) [nM] | IC50 (Influenza A virus [3]) [nM] | Flu intensity (MDCK) [%] | Activity (Influenza A virus [4]) | Activity (Influenza A virus [5]) | Activity (Influenza A virus [6]) | Activity (SARS-CoV-2 [7]) | IC50 (SARS-CoV-2 [8]) [nM] | IC50 (SARS-CoV-2 [9]) [nM]
CO/C1=C/C(C)=C/[C@@H](C)[C@H](O)[C@@H](C)C/C(C)=C/C=C/[C@H](OC)[C@@H]([C@@H](C)[C@@H](O)[C@H](C)[C@]2(OC)C[C@H](OC)[C@@H](C)[C@H](C(C)C)O2)OC1=O | 1290 | 260 | 0.18 | – | – | – | – | – | – | –
CCOC(=O)c1c(CSc2ccccc2)n(C)c2cc(Br)c(O)c(CN(C)C)c12 [UMIFENOVIR] | 46400 | 460 | 400 | – | – | – | – | – | – | –
CO/C1=C/C(C)=C/[C@@H](C)[C@H](O)[C@@H](C)C/C(C)=C/C=C/[C@H](OC)[C@@H]([C@@H](C)[C@@H](O)[C@H](C)C(=O)/C=C/[C@H](C)[C@H](O)C(C)C)OC1=O | 910 | 30 | 0.1 | 82.7 | – | – | – | – | – | –
CO/C1=C/C(C)=C/[C@@H](C)[C@H](O)[C@@H](C)C/C(C)=C/C=C/[C@H](OC)[C@@H]([C@@H](C)[C@@H](O)[C@H](C)C(=O)/C=C/C(C)=C/C(C)C)OC1=O | 3100 | 460 | 2.13 | 93.5 | – | – | – | – | – | –
CO/C1=C/C(C)=C/[C@@H](C)[C@H](O)[C@@H](C)C/C(C)=C/C=C/[C@H](OC)[C@@H]([C@@H](C)[C@@H](O)[C@H](C)[C@]2(OC)C[C@H](O)[C@@H](C)[C@H](C(C)C)O2)OC1=O | 1710 | 170 | 0.11 | 88.7 | – | – | – | – | – | –
CO/C1=C/C(C)=C/[C@@H](C)[C@H](O)[C@@H](C)C/C(C)=C/C=C/[C@H](OC)[C@@H]([C@@H](C)[C@@H](O)[C@H](C)[C@]2(O)C[C@H](OC(=O)/C=C/C(=O)NC3=C(O)CCC3=O)[C@@H](C)[C@H](C(C)C)O2)OC1=O | 1310 | 100 | 0.17 | 78.4 | Active | Active | Active | – | – | –
CO/C1=C\C(C)=C\[C@@H](C)[C@@H](O)[C@@H](C)C/C(C)=C/C=C/[C@H](OC)[C@@H]([C@@H](C)[C@@H](O)[C@H](C)[C@@]2(O)C[C@@H](O)[C@H](C)[C@@H](C(C)C)O2)OC1=O [BAFILOMYCIN A1] | 1410 | 580 | 0.06 | 85.3 | – | – | – | – | – | –
CO/C1=C/C(C)=C/[C@@H](C)[C@H](O)[C@@H](C)C/C(C)=C/C=C/[C@H](OC)[C@@H]([C@@H](C)[C@@H](O)[C@H](C)[C@]2(O)C[C@H](OC)[C@@H](C)[C@H](C(C)C)O2)OC1=O | 190 | 140 | 0.65 | – | – | – | – | – | – | –
CO/C1=C/C(C)=C/[C@@H](C)[C@H](O)[C@@H](C)C/C(C)=C/C=C/[C@H](OC)[C@@H]([C@@H](C)[C@@H](O)[C@H](C)[C@]2(OC)C[C@H](OC(=O)/C=C/C(=O)NC3=C(O)CCC3=O)[C@@H](C)[C@H](C(C)C)O2)OC1=O | 240 | 50 | 0.1 | 73.6 | Active | Active | Active | Active | 5.11 | 8.32

From ChEMBL document CHEMBL4813961, “Antiviral Bafilomycins from a Feces-Inhabiting Streptomyces sp” (J Nat Prod, 2021)
